Columns and labels:
[1] = Biodistribution in mice after intravenous injection (organ counting in scintillation counter); type: in vivo; settings: 25 g mice; i.v.; 60 minutes
[2] = Scintillation camera imaging and blood level in dogs after intravenous injection; settings: dog
Method: One animal was selected for imaging at various time intervals utilizing a scintillation camera. […] Sufficiet cholecystokinin was injected into the dog intravenously to effect contraction of the gall bladder. […] The images were obtained using a gamma scintillation camera (Pho Gamma III) and a parallel hole high sensitivity collimator.

[3] = Imaging in dog before and after plasma loading with bromosulphthalein (BSP), compared with I-131 Rose Bengal

time to leaving the gall bladder after cholecystokinin injection ([2]; after i.v. cholecystokinin, FIG. 4 Frame E)	time at which the liver is clearly identified ([2]; i.v. 4 mCi, FIG. 3 Frame A)	uptake by the liver ([2]; i.v. 4 mCi, anterior imaging, FIG. 3)	injected dose remaining in the blood ([2]; i.v. 4 mCi, at 10 minutes)	injected dose remaining in the blood (second value of "10% and 3% ... respectively") ([2]; i.v. 4 mCi, only "10 minutes" printed, second time missing)	SMILES	injected dose in the blood [1]	injected dose in the intestines [1]	injected dose in the liver [1]	clearance from the liver / accumulation in gall bladder ([2]; i.v. 4 mCi, images at 25, 40 and 50 minutes)	effect of BSP loading on plasma clearance or imaging characteristics ([3]; dog, BSP levels of 4-7 mg percent to simulate hyperbilirubinemia)	image quality compared to I-131 Rose Bengal ([3]; same dog, FIG. 5)
					Oc1cccc2cccnc12 [Example 9, gallium-67 chelate of 8-hydroxyquinoline]	20%	13%	25%			
					Oc1cccc2cccnc12 [Example 8, technetium-99m chelate of 8-hyroxyquinoline]		20%	40%			
≤ 1 min	5 min	rapid uptake by the liver	Less than 10%	< 3%	Cc1cccc(C)c1NC(=O)CN(CC(=O)O)CC(=O)O (99mTc complex, metal not drawn) [Example 2]				clearance from the liver is demonstrated with progressive accumulation of the radiopharmaceutical in the gall bladder	did not substantially alter the plasma clearance or imaging characteristics	much better quality
